{
  "source": "paper PMC2735267",
  "about": "(Neuropharmacology, 2009)",
  "key": {"human α3β4-nAChR": {"system": "human α3β4-nAChR", "conditions": "Xenopus oocytes; ref Abin-Carriquiry et al., 2006; cited from earlier work"}, "[3H]dopamine release": {"system": "[3H]dopamine release", "conditions": "read-out: EC50 [3H]dopamine release; cited from earlier work"}, "human α7": {"target": "human α7", "conditions": "read-out: Ki human α7; cited from earlier work"}, "α7-nAChR": {"target": "α7-nAChR (Mus musculus, UniProt P49582)", "sequence (P49582 23-502)": "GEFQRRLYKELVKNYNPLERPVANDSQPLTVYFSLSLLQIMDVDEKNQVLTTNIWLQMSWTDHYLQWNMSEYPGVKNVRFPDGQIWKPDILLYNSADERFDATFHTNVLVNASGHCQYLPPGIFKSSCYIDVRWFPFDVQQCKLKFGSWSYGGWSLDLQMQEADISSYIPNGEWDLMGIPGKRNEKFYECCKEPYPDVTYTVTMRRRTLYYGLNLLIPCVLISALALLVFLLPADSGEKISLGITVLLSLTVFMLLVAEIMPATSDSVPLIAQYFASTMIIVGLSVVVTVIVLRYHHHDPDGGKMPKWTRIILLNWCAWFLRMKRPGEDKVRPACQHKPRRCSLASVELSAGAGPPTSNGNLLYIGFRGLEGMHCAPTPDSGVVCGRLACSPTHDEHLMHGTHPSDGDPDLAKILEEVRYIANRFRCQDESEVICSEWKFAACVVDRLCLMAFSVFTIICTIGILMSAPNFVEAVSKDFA", "assay": "biochemical", "format": "binding, C57BL/6J mice"}, "[1]": {"conditions": "rats; ref Sloan et al., 1988; cited from earlier work"}, "human α7 nAChR": {"system": "human α7 nAChR", "conditions": "read-out: EC50 human α7 nAChR; cited from earlier work"}, "β4*-nAChR [2]": {"system": "β4*-nAChR", "conditions": "ref Luetje and Patrick, 1991; cited from earlier work"}, "[3]": {"system": "[125I]epibatidine binding sites (β2*- and β4*-nAChR)", "set-up": "species or system C57BL/6J mice", "conditions": "inferior colliculus, wild-type"}, "[4]": {"system": "[3H]noradrenaline release", "conditions": "read-out: EC50 [3H]noradrenaline release; cited from earlier work"}, "β2*-nAChR [5]": {"target": "β2*-nAChR (Mus musculus, UniProt O70174+Q9ERK7)", "sequence (O70174 31-629)": "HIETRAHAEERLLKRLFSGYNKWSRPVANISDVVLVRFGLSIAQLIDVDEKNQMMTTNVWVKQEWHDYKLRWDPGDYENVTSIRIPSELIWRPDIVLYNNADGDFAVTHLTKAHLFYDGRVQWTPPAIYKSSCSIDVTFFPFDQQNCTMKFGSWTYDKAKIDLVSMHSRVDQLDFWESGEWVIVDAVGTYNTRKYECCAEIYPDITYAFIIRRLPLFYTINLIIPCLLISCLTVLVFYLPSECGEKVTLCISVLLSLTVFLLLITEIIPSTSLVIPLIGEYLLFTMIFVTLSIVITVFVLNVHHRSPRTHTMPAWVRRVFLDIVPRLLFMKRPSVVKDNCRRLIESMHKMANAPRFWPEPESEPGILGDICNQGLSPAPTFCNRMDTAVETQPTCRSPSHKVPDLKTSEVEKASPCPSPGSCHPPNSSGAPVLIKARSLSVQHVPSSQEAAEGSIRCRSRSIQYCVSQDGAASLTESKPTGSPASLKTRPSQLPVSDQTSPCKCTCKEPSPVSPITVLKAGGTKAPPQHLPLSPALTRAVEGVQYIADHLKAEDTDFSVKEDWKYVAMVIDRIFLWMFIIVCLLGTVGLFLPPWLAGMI", "sequence (Q9ERK7 26-501)": "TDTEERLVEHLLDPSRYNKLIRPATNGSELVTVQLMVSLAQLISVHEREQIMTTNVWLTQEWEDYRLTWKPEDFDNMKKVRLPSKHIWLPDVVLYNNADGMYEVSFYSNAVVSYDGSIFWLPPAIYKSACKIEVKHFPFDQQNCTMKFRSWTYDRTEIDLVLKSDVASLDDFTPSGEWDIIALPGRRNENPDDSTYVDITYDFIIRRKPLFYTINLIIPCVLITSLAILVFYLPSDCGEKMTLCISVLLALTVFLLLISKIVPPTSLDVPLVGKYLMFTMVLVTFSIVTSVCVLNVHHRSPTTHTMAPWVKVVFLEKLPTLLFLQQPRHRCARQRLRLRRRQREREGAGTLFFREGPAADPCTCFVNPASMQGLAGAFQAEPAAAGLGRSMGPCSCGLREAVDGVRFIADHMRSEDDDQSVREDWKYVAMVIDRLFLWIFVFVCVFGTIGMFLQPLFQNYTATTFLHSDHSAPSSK", "assay": "biochemical", "format": "binding, C57BL/6J mice"}, "β4*-nAChR [6]": {"target": "β4*-nAChR (Mus musculus, UniProt Q8R493+Q8R4G9)", "sequence (Q8R493 21-495)": "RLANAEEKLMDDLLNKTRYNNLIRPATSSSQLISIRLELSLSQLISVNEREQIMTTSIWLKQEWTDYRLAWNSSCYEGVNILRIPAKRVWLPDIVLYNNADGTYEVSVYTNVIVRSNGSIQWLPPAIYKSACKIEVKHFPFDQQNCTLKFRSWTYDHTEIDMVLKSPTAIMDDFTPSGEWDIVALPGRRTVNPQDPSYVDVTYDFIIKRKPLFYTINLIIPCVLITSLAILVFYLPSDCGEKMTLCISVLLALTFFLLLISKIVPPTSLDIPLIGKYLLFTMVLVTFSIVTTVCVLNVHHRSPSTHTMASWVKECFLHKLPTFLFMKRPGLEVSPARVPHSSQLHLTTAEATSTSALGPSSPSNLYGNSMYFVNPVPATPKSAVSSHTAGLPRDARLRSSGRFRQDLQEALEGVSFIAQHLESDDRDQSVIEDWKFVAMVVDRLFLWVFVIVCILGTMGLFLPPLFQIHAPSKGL", "sequence (Q8R4G9 26-499)": "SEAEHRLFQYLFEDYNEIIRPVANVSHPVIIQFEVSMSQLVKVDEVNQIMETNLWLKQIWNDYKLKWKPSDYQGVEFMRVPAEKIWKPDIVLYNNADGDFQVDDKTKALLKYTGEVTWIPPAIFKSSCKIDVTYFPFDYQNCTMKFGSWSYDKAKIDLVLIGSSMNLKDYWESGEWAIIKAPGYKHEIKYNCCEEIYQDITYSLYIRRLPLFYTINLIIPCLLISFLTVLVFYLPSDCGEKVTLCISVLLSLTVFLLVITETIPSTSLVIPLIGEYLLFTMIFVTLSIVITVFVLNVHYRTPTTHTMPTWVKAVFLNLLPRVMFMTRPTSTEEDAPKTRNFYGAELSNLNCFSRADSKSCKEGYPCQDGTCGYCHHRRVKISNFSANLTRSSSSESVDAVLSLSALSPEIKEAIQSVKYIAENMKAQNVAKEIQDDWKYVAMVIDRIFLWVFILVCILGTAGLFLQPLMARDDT", "assay": "biochemical", "format": "binding, C57BL/6J mice"}, "α4β2* receptors": {"target": "α4β2* receptors", "conditions": "read-out: Ki α4β2* receptors in rat brain; cited from earlier work"}, "human α4β2": {"target": "human α4β2", "conditions": "read-out: Ki human α4β2; cited from earlier work"}, "β2*-nAChR [7]": {"system": "β2*-nAChR", "conditions": "ref Luetje and Patrick, 1991; cited from earlier work"}, "α4β2-nAChR": {"system": "α4β2-nAChR", "conditions": "cited from earlier work"}, "α7* receptors": {"target": "α7* receptors", "conditions": "read-out: Ki α7* receptors in rat brain; cited from earlier work"}, "DBA/2J mice": {"system": "DBA/2J mice", "assay": "3-IC-induced hypothermia", "format": "in vivo, mouse"}, "C57BL/6J mice": {"system": "C57BL/6J mice", "assay": "3-IC-induced hypothermia", "format": "in vivo, mouse"}, "α7* nAChR binding sites": {"system": "α7* nAChR binding sites", "conditions": "ten days 2 mg/kg/h nicotine, DBA/2J, ref Pauly et al., 1991, cited from earlier work"}},
  "note": "Where two headings read alike, the source gives them in different places.",
  "data": [
    {"smiles": "O=c1c(Br)ccc2n1C[C@@H]1CNC[C@H]2C1", "note": "[3-bromocytisine]", "values": [
      {"measurement": "agonist efficacy at human α3β4-nAChR", "setting": "human α3β4-nAChR", "value": "full agonist"}
    ]},
    {"smiles": "O=c1cccc2n1C[C@@H]1CNC[C@H]2C1", "note": "[cytisine, reference compound]", "values": [
      {"measurement": "EC50", "setting": "[3H]dopamine release", "value": 280, "unit": "nM"},
      {"measurement": "Ki", "setting": "human α7", "value": 30000, "unit": "nM"},
      {"measurement": "Ki", "setting": "α7-nAChR", "value": "1580 ± 180", "unit": "nM"},
      {"measurement": "half-life", "setting": "[1]", "value": "longer half-life than nicotine"},
      {"measurement": "EC50", "setting": "human α7 nAChR", "value": 83000, "unit": "nM"},
      {"measurement": "agonist efficacy at β4*-nAChR", "setting": "β4*-nAChR [2]", "value": "full agonist"},
      {"measurement": "difference in affinity for the two [125I]epibatidine binding sites", "setting": "[3]", "value": 60, "unit": "fold"},
      {"measurement": "EC50", "setting": "[4]", "value": 7400, "unit": "nM"},
      {"measurement": "Ki", "setting": "β2*-nAChR [5]", "value": "0.35 ± 0.01", "unit": "nM"},
      {"measurement": "Ki", "setting": "β4*-nAChR [6]", "value": "9.7 ± 1.5", "unit": "nM"},
      {"measurement": "Ki", "setting": "α4β2* receptors", "value": 1.2, "unit": "nM"},
      {"measurement": "Ki", "setting": "human α4β2", "value": 0.6, "unit": "nM"},
      {"measurement": "agonist efficacy at β2*-nAChR", "setting": "β2*-nAChR [7]", "value": "partial agonist"},
      {"measurement": "EC50", "setting": "α4β2-nAChR; read-out: EC50 high agonist sensitive form of α4β2-nAChR", "value": 5, "unit": "nM"},
      {"measurement": "EC50", "setting": "α4β2-nAChR; read-out: EC50 low agonist sensitive form of α4β2-nAChR", "value": 2000, "unit": "nM"},
      {"measurement": "Ki", "setting": "α7* receptors", "value": 8000, "unit": "nM"}
    ]},
    {"smiles": "C[N+](C)(C)CCCCCC[N+](C)(C)C", "note": "[hexamethonium, reference compound]", "values": [
      {"measurement": "effect of hexamethonium alone on body temperature", "setting": "DBA/2J mice; 10 mg/kg ip, DBA/2J, vs saline", "value": "modest, but statistically significant, hypothermia"},
      {"measurement": "maximal 3-IC-induced hypothermia after hexamethonium pretreatment", "setting": "DBA/2J mice; hexamethonium 10 mg/kg 10 min before 3-IC 0.2 mg/kg, DBA/2J", "value": "5.66 ± 0.45", "unit": "°C"},
      {"measurement": "blockade of 3-IC-induced hypothermia", "setting": "DBA/2J mice; hexamethonium 10 mg/kg, DBA/2J", "value": 33, "unit": "%"},
      {"measurement": "effect of hexamethonium alone on body temperature", "setting": "C57BL/6J mice; 10 mg/kg ip, vs saline", "value": "did not affect body temperature"},
      {"measurement": "blockade of 3-IC-induced hypothermia", "setting": "C57BL/6J mice; hexamethonium 10 mg/kg", "value": 60, "unit": "%"},
      {"measurement": "maximal 3-IC-induced hypothermia after hexamethonium pretreatment", "setting": "C57BL/6J mice; hexamethonium 10 mg/kg 10 min before 3-IC 0.2 mg/kg", "value": "3.75 ± 0.67", "unit": "°C"}
    ]},
    {"smiles": "CNC1(C)C2CCC(C2)C1(C)C", "note": "(stereo not drawn) [mecamylamine, reference compound]", "values": [
      {"measurement": "effect of mecamylamine alone on body temperature", "setting": "DBA/2J mice; 1 mg/kg ip, both mice strains", "value": "did not affect body temperature"},
      {"measurement": "time of maximal hypothermia after 3-IC injection, mecamylamine pretreated", "setting": "DBA/2J mice; mecamylamine 1 mg/kg + 3-IC 0.2 mg/kg, DBA/2J", "value": 20, "unit": "min"},
      {"measurement": "3-IC-induced hypothermia after mecamylamine pretreatment", "setting": "DBA/2J mice; mecamylamine 1 mg/kg ip 10 min before 3-IC 0.2 mg/kg, DBA/2J", "value": "1.13 ± 0.42", "unit": "°C"},
      {"measurement": "blockade of 3-IC-induced hypothermia", "setting": "C57BL/6J mice; mecamylamine 1 mg/kg before 3-IC 0.2 mg/kg", "value": "complete"},
      {"measurement": "3-IC-induced hypothermia after mecamylamine pretreatment", "setting": "C57BL/6J mice; mecamylamine 1 mg/kg ip 10 min before 3-IC 0.2 mg/kg", "value": "0.13 ± 0.09", "unit": "°C"}
    ]},
    {"smiles": "CN1CCC[C@H]1c1cccnc1", "note": "[nicotine]", "values": [
      {"measurement": "Ki", "setting": "α7-nAChR", "value": "930 ± 100", "unit": "nM"},
      {"measurement": "difference in affinity for the two [125I]epibatidine binding sites", "setting": "[3]", "value": 20, "unit": "fold"},
      {"measurement": "increase in [125I]α-bungarotoxin binding sites", "setting": "α7* nAChR binding sites; caudate putamen", "value": 14.2, "unit": "%"},
      {"measurement": "increase in [125I]α-bungarotoxin binding sites", "setting": "α7* nAChR binding sites; dentate gyrus", "value": 12.6, "unit": "%"},
      {"measurement": "increase in [125I]α-bungarotoxin binding sites", "setting": "α7* nAChR binding sites; hippocampus", "value": 33, "unit": "%"},
      {"measurement": "increase in [125I]α-bungarotoxin binding sites", "setting": "α7* nAChR binding sites; medial habenula", "value": 22.6, "unit": "%"},
      {"measurement": "increase in [125I]α-bungarotoxin binding sites", "setting": "α7* nAChR binding sites; substantia nigra", "value": 25.6, "unit": "%"},
      {"measurement": "increase in [125I]α-bungarotoxin binding sites", "setting": "α7* nAChR binding sites; zona incerta", "value": 17.6, "unit": "%"}
    ]}
  ]
}
